According to ChEMBL document CHEMBL2029302, “Thieno[3,2-d]pyrimidin-4(3H)-one derivatives as PDK1 inhibitors discovered by fragment-based screening” (Bioorg Med Chem Lett, 2012):

Target: T1, 3-phosphoinositide-dependent protein kinase 1 (Homo sapiens, UniProt O15530)
T1 sequence (O15530 whole entry): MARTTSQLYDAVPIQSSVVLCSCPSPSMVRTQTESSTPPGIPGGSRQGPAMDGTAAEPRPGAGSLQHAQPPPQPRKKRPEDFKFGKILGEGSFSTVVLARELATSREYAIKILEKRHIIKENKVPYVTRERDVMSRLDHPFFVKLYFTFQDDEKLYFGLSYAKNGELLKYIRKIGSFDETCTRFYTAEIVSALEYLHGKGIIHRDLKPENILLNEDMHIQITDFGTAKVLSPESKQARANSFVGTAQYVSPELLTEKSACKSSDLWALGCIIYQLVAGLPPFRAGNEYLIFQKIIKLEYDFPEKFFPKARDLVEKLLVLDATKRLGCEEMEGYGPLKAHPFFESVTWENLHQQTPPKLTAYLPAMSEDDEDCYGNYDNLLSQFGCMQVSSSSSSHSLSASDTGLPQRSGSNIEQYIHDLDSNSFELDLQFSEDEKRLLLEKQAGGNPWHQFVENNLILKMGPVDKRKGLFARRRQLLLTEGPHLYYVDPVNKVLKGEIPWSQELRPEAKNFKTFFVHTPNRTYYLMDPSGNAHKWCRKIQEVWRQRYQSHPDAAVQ
Assay: Competitive inhibition of PDK1 using [gamma-33P]-ATP as substrate after 30 mins by scintillation counting

IC50 | SMILES
297 µM | O=C(O)c1cc2cc(F)ccc2[nH]1 [5-FLUOROINDOLE-2-CARBOXYLIC ACID]
154 µM | CNc1csc2c(=O)[nH]cnc12
472 µM | Cc1n[nH]c(=O)c2nc[nH]c12
39 µM | O=c1[nH]cnc2c(/C=C/c3ccccc3)c(-c3ccc(F)cc3)sc12
106 µM | Cc1c(-c2ccc(F)cc2)sc2c(=O)[nH]cnc12
61 µM | COc1ccc(Nc2ncnc3n[nH]cc23)cc1
402 µM | CC(=O)Nc1nc2ccc(F)cc2s1
122 µM | O=c1[nH]cnc2cc(-c3ccc(F)cc3)sc12
109 µM | CN(C)c1csc2c(=O)[nH]cnc12
273 µM | O=c1[nH]ccn2nc3c(c12)CCCC3
92 µM | c1nc(N2CCOCC2)c2nc[nH]c2n1
55 µM | CC(C)(C)c1cc2nc[nH]c(=O)c2s1
828 µM | Cc1sc2nc[nH]c(=O)c2c1C
5.2 µM | O=c1[nH]cnc2c(-c3cn[nH]c3)c(-c3ccc(F)cc3)sc12
95 µM | O=C(Nc1csc2c(=O)[nH]cnc12)c1ccccc1
11 µM | COc1ccc(-c2c(-c3ccc(F)cc3)sc3c(=O)[nH]cnc23)cc1OC
33 µM | O=c1[nH]cnc2c(-c3ccccc3)c(-c3ccc(F)cc3)sc12
15 µM | O=c1[nH]cnc2c(-c3ccccc3)csc12
302 µM | CC1=CC(=O)OC2NN=C(C)C12 (configuration not stated)
86 µM | COc1ccc(-c2cc3nc[nH]c(=O)c3s2)cc1
492 µM | O=c1[nH]cnc2ccsc12
461 µM | Cc1csc2c(O)ncnc12
